# Measurements published in paper PMC12278645, “Design, synthesis, and antitumor activity of novel thioheterocyclic nucleoside derivatives by suppressing the c-MYC pathway” (Acta Pharmaceutica Sinica. B, 2025).
# How the values were obtained:
# [1] = test system: A375 (human malignant melanoma); experiment: CCK-8 anti-proliferation assay, A375; format: cell-based; settings: CCK-8, 48 h, mean ± SD
# Method: (§1) To evaluate their spectrum of anti-proliferative activity, further CCK-8 assays were carried out with the selected compounds (5a/5b, 8a/8b, 33a/33b, and 36a/36b) on MCF-7 (human breast cancer), A375 (human malignant melanoma), DU145 (human prostate cancer), and CT26 (mouse colon cancer) cell lines. The selected compounds had moderate to potent antitumor activity on the four cell lines, indicating their broad spectrum of antitumor activity (Table 5).
# (§2) MCF-7, A375, and HeLa cells were cultured in DMEM, HCT116 cells were cultured in McCoy's 5A medium, and DU145 and CT26 were cultured in RPMI 1640 with 10% FBS, 1% penicillin-streptomycin solution (10,000 U/mL penicillin and 10,000 μg/mL streptomycin) at 37 °C under 5% CO2. The cells were seeded in 96-well plates (4 × 10^3 cells/well) overnight and then treated with various concentrations (1–50 μmol/L) of the compound. After 48 h, the cell viability was measured by CCK-8 assay. The absorbance of each well was measured using a microplate reader (Multiskan FC, Thermo Fisher Scientific, Massachusetts, USA) at 450 nm wavelength. Assays were performed in triplicate. Compound concentrations that inhibited cell growth by 50% (IC50) were calculated from the dose–response curves of each cell line. Data are mean ± SD values from three independent experiments.
# HCT116 cells = experiment: CCK-8 anti-proliferation assay, HCT116; format: cell-based, human
# Method: (§3) Tumor cell anti-proliferation activities were determined by cell counting kit-8 (CCK-8) assay.
# as §2
# [2] = test system: DU145 (human prostate cancer); experiment: CCK-8 anti-proliferation assay, DU145; format: cell-based; settings: CCK-8, 48 h, mean ± SD
# Method: as §1, §2
# HeLa cells = experiment: CCK-8 anti-proliferation assay, HeLa; format: cell-based, human
# Method: as §3, §2
# [3] = test system: MCF-7 (human breast cancer); experiment: CCK-8 anti-proliferation assay, MCF-7; format: cell-based; settings: CCK-8, 48 h, mean ± SD
# Method: as §1, §2
# [4] = test system: CT26 (mouse colon cancer); experiment: CCK-8 anti-proliferation assay, CT26; format: cell-based; settings: CCK-8, 48 h, mean ± SD
# Method: as §1, §2
# [5] = CCK-8, 48 h, mean ± SD, three independent experiments
# [6] = Homo sapiens, HCT-116, 48 h, CCK-8, 48 h, mean ± SD, three independent experiments
# [7] = Homo sapiens, HeLa, 48 h, CCK-8, 48 h, mean ± SD, three independent experiments
Compound,IC50 (HCT116 cells; [5]),IC50 (HeLa cells; [5]),IC50 (HCT116 cells; [6]),IC50 (HeLa cells; [7]),other results
"CCOC(=O)C1(n2cnc3c(N4CCCCC4)ncnc32)CSCC1O (single isomer, unassigned) [5b]",1.77 ± 0.12 µM,4.61 ± 0.87 µM,,,IC50 [1]: 7.52 ± 1.03 µM; IC50 [2]: 42.5 ± 2.11 µM; IC50 [3]: 35.2 ± 2.14 µM; IC50 [4]: 2.42 ± 0.11 µM
"O=c1[nH]cc(F)c(=O)[nH]1 [5-FU, 5-fluorouracil, reference compound]",,,9.84 ± 2.32 µM,4.93 ± 1.02 µM,"IC50 ([1]; Homo sapiens, A-375): 8.62 ± 1.21 µM; IC50 ([2]; Homo sapiens, DU-145): 21.4 ± 2.17 µM; IC50 ([3]; Homo sapiens, MCF7): > 50 µM; IC50 ([4]; Mus musculus, CT26): 3.12 ± 0.13 µM"
"CCCSc1ncnc2c1ncn2C1(C(=O)OCC)CSCC1O (single isomer, unassigned) [8a]",3.43 ± 0.23 µM,2.77 ± 0.41 µM,,,IC50 [1]: 4.52 ± 1.12 µM; IC50 [2]: 29.3 ± 1.37 µM; IC50 [3]: 28.2 ± 2.16 µM; IC50 [4]: 2.58 ± 0.15 µM
CCCSc1nc(F)nc2c1ncn2C1(C(=O)OCC)CSCC1O (stereo not drawn) [36a],0.72 ± 0.12 µM,9.68 ± 1.12 µM,,,IC50 [1]: 4.27 ± 1.02 µM; IC50 [2]: 9.48 ± 1.11 µM; IC50 [3]: 11.3 ± 1.27 µM; IC50 [4]: 0.94 ± 0.11 µM
CCOC(=O)C1(n2cnc3c(N4CCCCC4)nc(F)nc32)CSCC1O (stereo not drawn) [33b],0.46 ± 0.04 µM,8.15 ± 1.08 µM,,,IC50 [1]: 14.67 ± 0.09 µM; IC50 [2]: 18.6 ± 2.12 µM; IC50 [3]: 7.47 ± 1.17 µM; IC50 [4]: 0.79 ± 0.14 µM
"CCOC(=O)C1(n2cnc3c(N4CCCCC4)ncnc32)CSCC1O (single isomer, unassigned) [5a]",1.84 ± 0.14 µM,2.65 ± 0.52 µM,,,IC50 [1]: 11.8 ± 1.12 µM; IC50 [2]: 42.8 ± 2.12 µM; IC50 [3]: 11.2 ± 1.04 µM; IC50 [4]: 2.33 ± 0.14 µM
"CCOC(=O)C1(n2cnc3c(N4CCCCC4)nc(N)nc32)CSCC1O (single isomer, unassigned) [32a]",0.72 ± 0.08 µM,5.35 ± 1.05 µM,,,
"CCCSc1nc(Cl)nc2c1ncn2C1(C(=O)OCC)CSCC1O (single isomer, unassigned) [37b]",2.7 ± 0.04 µM,5.98 ± 1.25 µM,,,
"CCOC(=O)C1(n2cnc3c(N4CCC(Cc5ccccc5F)CC4)ncnc32)CSCC1O (single isomer, unassigned) [17a]",4.4 ± 1.02 µM,17 ± 1.03 µM,,,
"CCOC(=O)C1(n2cnc3c(N4CCC(C)CC4)ncnc32)CSCC1O (single isomer, unassigned) [11b]",0.91 ± 0.27 µM,23.4 ± 2.76 µM,,,
"CCOC(=O)C1(n2cnc3c(Cl)nc(N)nc32)CSCC1O (single isomer, unassigned) [38a]",,,,,"IC50 (HCT116 cells; Table S3, CCK-8, mean ± SD): 30.5 ± 1.42 µM; IC50 (HeLa cells; Table S3, CCK-8, mean ± SD): 25.6 ± 2.13 µM"
CCOC(=O)C1(n2cnc3c(N4CCC(Cc5ccccc5)CC4)ncnc32)CSCC1O (stereo not drawn) [16a],1.2 ± 0.09 µM,3.34 ± 0.36 µM,,,
"CCOC(=O)C1(n2cnc3c(N4CCCCCC4)ncnc32)CSCC1O (single isomer, unassigned) [19a]",1.19 ± 0.09 µM,22.8 ± 1.22 µM,,,
CCOC(=O)[C@]1(n2cnc3c(SC)ncnc32)CSC[C@@H]1O (relative stereo) [21b],,,32.7 ± 1.17 µM,8.83 ± 0.78 µM,
"CCOC(=O)C1(n2cnc3c(N4CCCC4)ncnc32)CSCC1O (single isomer, unassigned) [20b]",22.8 ± 1.04 µM,12.2 ± 1.28 µM,,,
"CCOC(=O)C1(n2cnc3c(N4CCC(F)CC4)ncnc32)CSCC1O (single isomer, unassigned) [12a]",1.64 ± 0.27 µM,44.5 ± 3.12 µM,,,
CCOC(=O)C1(n2cnc3c(N4CCN(C)CC4)ncnc32)CSCC1O (stereo not drawn) [18a],> 50 µM,> 50 µM,,,"anticancer activity (HCT116 cells; under 50 μmol/L, HeLa and HCT116): inactive"
CCCCCSc1ncnc2c1ncn2[C@@]1(C(=O)OCC)CSC[C@H]1O (relative stereo) [26a],,,11.9 ± 1.32 µM,6.07 ± 0.78 µM,
"CCCSc1ncnc2c1ncn2C1(C(=O)OCC)CSCC1O (single isomer, unassigned) [8b]",2.02 ± 0.07 µM,2.55 ± 0.12 µM,,,IC50 [1]: 2.82 ± 0.03 µM; IC50 [2]: 11 ± 1.04 µM; IC50 [3]: 25.4 ± 2.45 µM; IC50 [4]: 2.37 ± 0.08 µM
CCOC(=O)[C@]1(n2cnc3c(Sc4ccc(C(C)(C)C)cc4)ncnc32)CSC[C@@H]1O (relative stereo) [29b],,,6.78 ± 1.22 µM,15.1 ± 2.08 µM,
CCOC(=O)[C@@]1(n2cnc3c(N4CCCCC4)nc(F)nc32)CSC[C@@H]1O [33 ab],,,0.21 ± 0.13 µM,10.1 ± 1.02 µM,

Compound,IC50 (HCT116 cells; [5]),IC50 (HeLa cells; [5]),IC50 (HCT116 cells; [6]),IC50 (HeLa cells; [7]),other results
"CCOC(=O)C1(n2cnc3c(N4CCCCC4)nc(Cl)nc32)CSCC1O (single isomer, unassigned) [34a]",7.2 ± 0.39 µM,4.86 ± 0.65 µM,,,
"CCOC(=O)C1(n2cnc3c(N(C)C)ncnc32)CSCC1O (single isomer, unassigned) [4b]",49.5 ± 2.02 µM,12 ± 1.57 µM,,,
"CCOC(=O)C1(n2cnc3c(N4CCOCC4)nc(Cl)nc32)CSCC1O (single isomer, unassigned) [42a]",,,,,"IC50 (HCT116 cells; Table S3, CCK-8, mean ± SD): 24.2 ± 1.32 µM; IC50 (HeLa cells; Table S3, CCK-8, mean ± SD): 6.32 ± 1.02 µM"
CCOC(=O)[C@]1(n2cnc3c(SCCCCl)ncnc32)CSC[C@@H]1O (relative stereo) [31b],,,> 50 µM,> 50 µM,
"CCOC(=O)C1(n2cnc3c(Cl)nc(N)nc32)CSCC1O (single isomer, unassigned) [38b]",,,,,"IC50 (HCT116 cells; Table S3, CCK-8, mean ± SD): 10.6 ± 1.02 µM; IC50 (HeLa cells; Table S3, CCK-8, mean ± SD): 22.5 ± 2.17 µM"
CCOC(=O)C1(n2cnc3c(OCC)ncnc32)CSCC1O (stereo not drawn) [6a],> 50 µM,> 50 µM,,,
CCOC(=O)[C@]1(n2cnc3c(Sc4cccc(F)c4)ncnc32)CSC[C@@H]1O (relative stereo) [28b],,,15.7 ± 2 µM,25.8 ± 1.35 µM,
"CCOC(=O)C1(n2cnc3c(N4CCCCC4)nc(Cl)nc32)CSCC1O (single isomer, unassigned) [34b]",4.3 ± 0.51 µM,4.05 ± 0.37 µM,,,
C#CCSc1ncnc2c1ncn2[C@@]1(C(=O)OCC)CSC[C@@H]1O (relative stereo) [24b],,,1.66 ± 0.13 µM,14.9 ± 2.01 µM,
CCOC(=O)[C@]1(n2cnc3c(Sc4ccc(C(C)(C)C)cc4)ncnc32)CSC[C@H]1O (relative stereo) [29a],,,7.6 ± 1.22 µM,21.2 ± 2.37 µM,
CCCCCSc1ncnc2c1ncn2[C@@]1(C(=O)OCC)CSC[C@@H]1O (relative stereo) [26b],,,11.8 ± 1.27 µM,> 50 µM,
"CCOC(=O)C1(n2cnc3c(Cl)ncnc32)CSCC1O (single isomer, unassigned) [2a]",48.9 ± 2.12 µM,> 50 µM,,,
CCCCSc1ncnc2c1ncn2[C@@]1(C(=O)OCC)CSC[C@H]1O (relative stereo) [25a],,,9.07 ± 0.49 µM,9.89 ± 1.02 µM,
"CCCSc1nc(N)nc2c1ncn2C1(C(=O)OCC)CSCC1O (single isomer, unassigned) [35a]",0.73 ± 0.11 µM,9.44 ± 1.27 µM,,,
CCOC(=O)C1(n2cnc3cnc(Cl)nc32)CSCC1O (stereo not drawn) [41a],,,,,"IC50 (HCT116 cells; Table S3, CCK-8, mean ± SD): > 50 µM; IC50 (HeLa cells; Table S3, CCK-8, mean ± SD): > 50 µM"
CCOC(=O)[C@]1(n2cnc3c(SC(C)C)ncnc32)CSC[C@H]1O (relative stereo) [23a],,,4.85 ± 1.02 µM,8.45 ± 1.23 µM,
CCOC(=O)[C@]1(n2cnc3c(SCc4ccccc4)ncnc32)CSC[C@@H]1O (relative stereo) [27b],,,5.65 ± 1.4 µM,23.9 ± 2.38 µM,
"CCOC(=O)C1(n2cnc3c(Br)ncnc32)CSCC1O (single isomer, unassigned) [3b]",> 50 µM,> 50 µM,,,
"CCOC(=O)C1(n2cnc3c(N4CCCCCC4)ncnc32)CSCC1O (single isomer, unassigned) [19b]",3.05 ± 0.67 µM,46.1 ± 2.46 µM,,,
"CCCSc1nc(N)nc2c1ncn2C1(C(=O)OCC)CSCC1O (single isomer, unassigned) [35b]",0.65 ± 0.21 µM,8.49 ± 1.02 µM,,,
